{"source": "ChEMBL document CHEMBL4680314", "about": "“Discovery of potent glycogen synthase kinase 3/cholinesterase inhibitors with neuroprotection as potential therapeutic agent for Alzheimer's disease” (Bioorg Med Chem, 2021)", "key": {"[1]": {"target": "Acetylcholinesterase (Homo sapiens, UniProt P22303)", "sequence (P22303 whole entry)": "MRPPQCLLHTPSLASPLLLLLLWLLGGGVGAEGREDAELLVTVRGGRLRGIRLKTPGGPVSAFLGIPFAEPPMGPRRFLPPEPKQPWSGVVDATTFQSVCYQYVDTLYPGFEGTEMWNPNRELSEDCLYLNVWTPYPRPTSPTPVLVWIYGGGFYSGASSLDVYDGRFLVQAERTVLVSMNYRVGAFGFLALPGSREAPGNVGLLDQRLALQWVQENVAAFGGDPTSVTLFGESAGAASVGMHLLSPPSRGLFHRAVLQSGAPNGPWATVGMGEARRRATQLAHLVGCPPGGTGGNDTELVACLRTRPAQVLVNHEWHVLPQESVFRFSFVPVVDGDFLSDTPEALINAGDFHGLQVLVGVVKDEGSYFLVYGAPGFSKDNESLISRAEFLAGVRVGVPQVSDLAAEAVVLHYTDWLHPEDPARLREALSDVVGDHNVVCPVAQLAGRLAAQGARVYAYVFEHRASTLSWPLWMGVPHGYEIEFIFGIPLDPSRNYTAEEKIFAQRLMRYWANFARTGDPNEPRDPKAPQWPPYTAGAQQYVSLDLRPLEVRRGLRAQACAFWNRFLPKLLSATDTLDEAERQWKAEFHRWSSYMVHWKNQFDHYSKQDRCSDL", "experiment": "Inhibition of human recombinant AChE expressed in HEK293 cells using acetylthiocholine iodide as substrate incubated for 10 mins by Ellman's method", "type": "cell-based"}, "[2]": {"target": "Mitogen-activated protein kinase 1 (Homo sapiens, UniProt P28482)", "sequence (P28482 whole entry)": "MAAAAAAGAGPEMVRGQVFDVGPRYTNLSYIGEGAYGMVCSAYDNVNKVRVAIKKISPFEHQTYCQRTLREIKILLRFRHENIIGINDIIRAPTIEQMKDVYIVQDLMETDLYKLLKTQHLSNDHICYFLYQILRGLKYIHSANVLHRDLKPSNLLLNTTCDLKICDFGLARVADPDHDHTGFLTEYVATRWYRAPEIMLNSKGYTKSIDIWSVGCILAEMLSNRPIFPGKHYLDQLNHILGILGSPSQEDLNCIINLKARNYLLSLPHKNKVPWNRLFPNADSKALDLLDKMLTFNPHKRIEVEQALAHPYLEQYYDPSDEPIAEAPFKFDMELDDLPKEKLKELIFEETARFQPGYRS", "experiment": "Inhibition of ERK2 (unknown origin) by ATP competitive based analysis"}, "[3]": {"target": "Mitogen-activated protein kinase 13 (Homo sapiens, UniProt O15264)", "sequence (O15264 whole entry)": "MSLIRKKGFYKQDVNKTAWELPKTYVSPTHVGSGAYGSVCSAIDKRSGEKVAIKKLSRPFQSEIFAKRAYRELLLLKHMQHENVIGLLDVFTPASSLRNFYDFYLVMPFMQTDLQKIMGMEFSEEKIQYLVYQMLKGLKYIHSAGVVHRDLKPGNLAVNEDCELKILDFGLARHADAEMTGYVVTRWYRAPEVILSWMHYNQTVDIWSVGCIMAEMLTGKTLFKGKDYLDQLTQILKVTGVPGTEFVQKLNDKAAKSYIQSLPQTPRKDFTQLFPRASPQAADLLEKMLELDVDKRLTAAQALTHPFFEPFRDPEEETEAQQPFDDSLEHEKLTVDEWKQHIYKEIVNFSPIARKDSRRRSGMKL", "experiment": "Inhibition of p38MAPK delta (unknown origin) by ATP competitive based analysis"}, "[4]": {"target": "T1, Glycogen synthase kinase-3 beta (Homo sapiens, UniProt P49841)", "T1 sequence (P49841 whole entry)": "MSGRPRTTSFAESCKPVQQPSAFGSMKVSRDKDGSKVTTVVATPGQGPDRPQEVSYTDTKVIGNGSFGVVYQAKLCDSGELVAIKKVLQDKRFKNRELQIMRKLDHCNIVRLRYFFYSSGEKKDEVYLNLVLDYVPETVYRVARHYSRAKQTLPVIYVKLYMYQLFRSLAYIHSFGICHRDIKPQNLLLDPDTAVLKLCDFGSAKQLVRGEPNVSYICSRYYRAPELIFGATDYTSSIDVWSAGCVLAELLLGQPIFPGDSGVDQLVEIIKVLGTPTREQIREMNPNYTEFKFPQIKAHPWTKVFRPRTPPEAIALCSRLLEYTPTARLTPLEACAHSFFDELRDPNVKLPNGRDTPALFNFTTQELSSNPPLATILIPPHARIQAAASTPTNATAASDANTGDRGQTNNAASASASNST", "experiment": "Inhibition of GSK3beta (unknown origin) by ATP competitive based analysis"}, "[5]": {"target": "Mitogen-activated protein kinase 9 (Homo sapiens, UniProt P45984)", "sequence (P45984 whole entry)": "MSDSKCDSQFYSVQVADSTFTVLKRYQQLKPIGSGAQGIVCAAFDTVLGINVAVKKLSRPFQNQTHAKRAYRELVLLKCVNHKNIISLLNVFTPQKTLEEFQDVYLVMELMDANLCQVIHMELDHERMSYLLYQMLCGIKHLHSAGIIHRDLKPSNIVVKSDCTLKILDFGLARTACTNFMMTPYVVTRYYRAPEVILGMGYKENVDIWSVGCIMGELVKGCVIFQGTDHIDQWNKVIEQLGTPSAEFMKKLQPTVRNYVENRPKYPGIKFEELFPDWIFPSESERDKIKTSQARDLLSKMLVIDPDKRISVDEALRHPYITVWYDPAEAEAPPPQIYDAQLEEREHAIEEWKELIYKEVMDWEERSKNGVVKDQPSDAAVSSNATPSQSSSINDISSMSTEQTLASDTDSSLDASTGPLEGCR", "experiment": "Inhibition of JNK2 (unknown origin) by ATP competitive based analysis"}, "[6]": {"target": "Mitogen-activated protein kinase 10 (Homo sapiens, UniProt P53779)", "sequence (P53779 whole entry)": "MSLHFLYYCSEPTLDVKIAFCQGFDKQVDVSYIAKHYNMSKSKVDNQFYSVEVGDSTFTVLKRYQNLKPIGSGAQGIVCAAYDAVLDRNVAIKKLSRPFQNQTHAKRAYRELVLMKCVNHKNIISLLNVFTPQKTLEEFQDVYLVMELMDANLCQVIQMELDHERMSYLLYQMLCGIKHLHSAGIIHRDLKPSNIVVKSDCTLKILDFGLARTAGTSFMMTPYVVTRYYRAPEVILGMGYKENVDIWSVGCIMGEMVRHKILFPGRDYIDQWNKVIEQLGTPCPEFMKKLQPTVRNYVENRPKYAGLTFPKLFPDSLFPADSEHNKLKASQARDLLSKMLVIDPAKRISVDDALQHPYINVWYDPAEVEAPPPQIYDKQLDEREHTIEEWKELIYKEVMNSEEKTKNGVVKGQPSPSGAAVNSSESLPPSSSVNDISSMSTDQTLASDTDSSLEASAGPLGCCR", "experiment": "Inhibition of JNK3 (unknown origin) by ATP competitive based analysis"}, "[7]": {"target": "Cyclin-dependent kinase 6 (Homo sapiens, UniProt Q00534)", "sequence (Q00534 whole entry)": "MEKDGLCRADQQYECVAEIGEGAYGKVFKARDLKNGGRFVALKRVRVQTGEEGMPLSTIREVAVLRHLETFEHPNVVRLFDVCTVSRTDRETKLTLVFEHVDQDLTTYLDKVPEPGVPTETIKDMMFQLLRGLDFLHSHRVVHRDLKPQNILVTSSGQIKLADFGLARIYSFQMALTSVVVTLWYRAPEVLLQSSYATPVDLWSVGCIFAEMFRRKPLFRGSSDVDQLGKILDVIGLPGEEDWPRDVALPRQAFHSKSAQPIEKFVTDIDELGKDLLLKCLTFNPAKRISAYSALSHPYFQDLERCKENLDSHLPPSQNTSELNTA", "experiment": "Inhibition of CDK6 (unknown origin) by ATP competitive based analysis"}, "[8]": {"target": "Glycogen synthase kinase-3 beta (Mus musculus, UniProt Q9WV60)", "sequence (Q9WV60 whole entry)": "as the sequence (P49841 whole entry) above, with T390P, T392A, A400T, T402A counted along it", "experiment": "Inhibition of GSK3beta in mouse N2a cells overexpressing human tau assessed as reduction in tau phosphorylation at Ser396 residue incubated for 6 hrs by Western blot analysis", "type": "cell-based"}, "[9]": {"target": "Glycogen synthase kinase-3 beta (Mus musculus) (UniProt Q9WV60)", "sequence (Q9WV60 whole entry, looked up)": "as the sequence (P49841 whole entry) above, with T390P, T392A, A400T, T402A counted along it", "experiment": "Inhibition of GSK3beta in mouse N2a cells overexpressing human tau assessed as reduction in tau phosphorylation at Ser396 residue at 6 uM incubated for 6 hrs by Western blot analysis relative to control", "type": "cell-based"}, "[10]": {"target": "Glycogen synthase kinase-3 beta (Mus musculus) (UniProt Q9WV60)", "experiment": "Inhibition of GSK3beta in mouse N2a cells overexpressing human tau assessed as tau phosphorylation at Ser396 residue at 0.67 uM incubated for 6 hrs by Western blot analysis (reference value: […] %)", "type": "cell-based", "set-up": "scale not given: the % may be the effect or the level left"}, "[11]": {"target": "Glycogen synthase kinase-3 beta (Mus musculus) (UniProt Q9WV60)", "experiment": "Inhibition of GSK3beta in mouse N2a cells overexpressing human tau assessed as tau phosphorylation at Ser396 residue at 2 uM incubated for 6 hrs by Western blot analysis (reference value: […] %)", "type": "cell-based", "set-up": "scale not given: the % may be the effect or the level left"}, "[12]": {"test_system": "BV-2", "experiment": "Anti-inflammatory activity in mouse BV-2 cells assessed as reduction in LPS-induced ROS production at 3 uM incubated for 1 hr followed by LPS stimulation and measured after 24 hrs by DCFH-DA staining based inverted fluorescence microscopy", "type": "functional, cell-based", "conditions": "time 25.0 hrs"}, "[13]": {"test_system": "BV-2", "experiment": "Anti-inflammatory activity in mouse BV-2 cells assessed as reduction in LPS-induced IL-1beta expression at 4 uM incubated for 1 hr followed by LPS stimulation and measured after 24 hrs by immunofluorescence based laser confocal microscopy", "type": "functional, cell-based", "conditions": "time 25.0 hrs"}, "[14]": {"experiment": "Tmax in Sprague-Dawley rat at 10 mg/kg, po measured upto 24 hrs by LC-MS/MS analysis", "type": "ADME, organism-based", "conditions": "in vivo"}, "[15]": {"experiment": "Cmax in Sprague-Dawley rat at 10 mg/kg, po measured upto 24 hrs by LC-MS/MS analysis", "type": "ADME, organism-based", "set-up": "route oral, dose 10 mg/kg, time <=24", "conditions": "in vivo"}, "[16]": {"experiment": "AUC (0 to infinity) in Sprague-Dawley rat at 10 mg/kg, po by LC-MS/MS analysis", "type": "ADME, organism-based", "set-up": "route oral, time infinity, dose 10 mg/kg", "conditions": "in vivo"}, "[17]": {"experiment": "Volume of distribution in Sprague-Dawley rat at 10 mg/kg, po measured upto 24 hrs by LC-MS/MS analysis", "type": "ADME, organism-based", "conditions": "in vivo"}, "[18]": {"experiment": "Clearance in Sprague-Dawley rat at 10 mg/kg, po measured upto 24 hrs by LC-MS/MS analysis", "type": "ADME, organism-based", "conditions": "in vivo"}, "[19]": {"experiment": "Oral bioavailability in Sprague-Dawley rat at 10 mg/kg measured upto 24 hrs by LC-MS/MS analysis", "type": "ADME, organism-based", "conditions": "in vivo"}, "[20]": {"experiment": "Tmax in Sprague-Dawley rat at 5 mg/kg, iv measured upto 24 hrs by LC-MS/MS analysis", "type": "ADME, organism-based", "conditions": "in vivo"}, "[21]": {"experiment": "Cmax in Sprague-Dawley rat at 5 mg/kg, iv measured upto 24 hrs by LC-MS/MS analysis", "type": "ADME, organism-based", "set-up": "route intravenous, dose 5 mg/kg, time <=24", "conditions": "in vivo"}, "[22]": {"experiment": "Volume of distribution in Sprague-Dawley rat at 5 mg/kg, iv measured upto 24 hrs by LC-MS/MS analysis", "type": "ADME, organism-based", "conditions": "in vivo"}, "[23]": {"experiment": "Clearance in Sprague-Dawley rat at 5 mg/kg, iv measured upto 24 hrs by LC-MS/MS analysis", "type": "ADME, organism-based", "conditions": "in vivo"}, "[24]": {"experiment": "Plasma concentration in ICR mouse at 15 mg/kg, po measured after 90 mins by LC-MS/MS analysis", "type": "ADME, organism-based"}, "[25]": {"organism": "Homo sapiens", "experiment": "Selectivity index, ratio of IC50 for p38MAPK gamma (unknown origin) to IC50 for GSK-3 beta (unknown origin) by ATP competitive based analysis"}, "[26]": {"organism": "Homo sapiens", "experiment": "Selectivity index, ratio of IC50 for p38MAPK delta (unknown origin) to IC50 for GSK-3 beta (unknown origin) by ATP competitive based analysis"}, "[27]": {"organism": "Homo sapiens", "experiment": "Selectivity index, ratio of IC50 for JNK2 (unknown origin) to IC50 for GSK-3 beta (unknown origin) by ATP competitive based analysis"}, "[28]": {"organism": "Homo sapiens", "experiment": "Selectivity index, ratio of IC50 for CDK2 (unknown origin) to IC50 for GSK-3 beta (unknown origin) by ATP competitive based analysis"}, "[29]": {"organism": "Homo sapiens", "experiment": "Selectivity index, ratio of IC50 for CDK1 (unknown origin) to IC50 for GSK-3 beta (unknown origin) by ATP competitive based analysis"}, "[30]": {"organism": "Homo sapiens", "experiment": "Selectivity index, ratio of IC50 for CDK4 (unknown origin) to IC50 for GSK-3 beta (unknown origin) by ATP competitive based analysis"}, "[31]": {"organism": "Homo sapiens", "experiment": "Selectivity index, ratio of IC50 for CDK9 (unknown origin) to IC50 for GSK-3 beta (unknown origin) by ATP competitive based analysis"}, "[32]": {"organism": "Homo sapiens", "experiment": "Selectivity index, ratio of IC50 for CDK7 (unknown origin) to IC50 for GSK-3 beta (unknown origin) by ATP competitive based analysis"}, "[33]": {"test_system": "Mus musculus", "experiment": "Cognitive enhancing effect in ICR mouse model of scopolamine-induced cognitive dysfunction assessed as reduction in memory impairment by measuring increase in number of virtual platform crossings at 15 mg/kg, po by Morris water maze test", "type": "functional, organism-based"}, "[34]": {"experiment": "in vitro", "conditions": "PAMPA", "description": "Effective permeability of compound in PBS/EtOH buffer (7:3) at 25 ug/ml incubated for 18 hrs by PAMPA-BBB assay"}, "[35]": {"target": "T1, Glycogen synthase kinase-3 beta", "experiment": "biochemical", "description": "Inhibition of recombinant human N-terminal His6-tagged GSK3beta H350L mutant expressed in baculovirus infected Sf21 cells using prephosphorylated polypeptide as substrate incubated for 1 min followed by substrate addition and measured after 30 mins by Kinase-Glo luminescence assay"}}, "note": "The source made the active and inactive calls. No cut-off for these calls is given here.", "data": [{"molecule": "NC(=O)c1sc(-c2ccnc(NC(=O)C3CC3)c2)nc1OCCCC1CCN(Cc2ccc(F)cc2)CC1", "values": [{"measurement": "IC50", "setting": "[1]", "result": 310, "unit": "nM"}, {"measurement": "IC50", "setting": "[2]", "result": "> 300", "unit": "nM"}, {"measurement": "IC50", "setting": "[3]", "result": "> 300", "unit": "nM"}, {"measurement": "IC50", "setting": "[4]", "result": 16.1, "unit": "nM"}, {"measurement": "IC50", "setting": "[5]", "result": "> 300", "unit": "nM"}, {"measurement": "IC50", "setting": "[6]", "result": "> 300", "unit": "nM"}, {"measurement": "IC50", "setting": "[7]", "result": "> 300", "unit": "nM"}, {"measurement": "DC50", "setting": "[8]", "result": 380, "unit": "nM"}, {"measurement": "Imax", "setting": "[9]", "result": 93, "unit": "%"}, {"measurement": "Activity", "setting": "[10]", "result": 32.9, "unit": "%"}, {"measurement": "Activity", "setting": "[11]", "result": 14.3, "unit": "%"}, {"measurement": "Activity", "setting": "[12]", "result": "Active"}, {"measurement": "Activity", "setting": "[13]", "result": "Active"}, {"measurement": "Tmax", "setting": "[14]", "result": 4.7, "unit": "h"}, {"measurement": "Cmax", "setting": "[15]", "result": 132, "unit": "ng/mL"}, {"measurement": "AUC(0-inf)", "setting": "[16]", "result": 1260, "unit": "ng·h/mL"}, {"measurement": "Vd", "setting": "[17]", "result": 60.7, "unit": "L/kg"}, {"measurement": "CL/F", "setting": "[18]", "result": 112, "unit": "mL/min/kg"}, {"measurement": "bioavailability", "setting": "[19]", "result": 30.3, "unit": "%"}, {"measurement": "Tmax", "setting": "[20]", "result": 4.98, "unit": "min"}, {"measurement": "Cmax", "setting": "[21]", "result": 1000, "unit": "ng/mL"}, {"measurement": "Vd", "setting": "[22]", "result": 15.8, "unit": "L/kg"}, {"measurement": "clearance", "setting": "[23]", "result": 42.5, "unit": "mL/min/kg"}, {"measurement": "concentration at 1.5 h", "setting": "[24]", "result": 265, "unit": "ng/mL"}, {"measurement": "Ratio IC50", "setting": "[25]", "result": 200}, {"measurement": "Ratio IC50", "setting": "[26]", "result": 200}, {"measurement": "Ratio IC50", "setting": "[27]", "result": 200}, {"measurement": "Ratio IC50", "setting": "[28]", "result": 200}, {"measurement": "Ratio IC50", "setting": "[29]", "result": 200}, {"measurement": "Ratio IC50", "setting": "[30]", "result": 200}, {"measurement": "Ratio IC50", "setting": "[31]", "result": 200}, {"measurement": "Ratio IC50", "setting": "[32]", "result": 200}, {"measurement": "Activity", "setting": "[33]", "result": "Active"}, {"measurement": "Papp at 18 h, 25 ug/ml", "setting": "[34]", "result": 8.4, "unit": "×10⁻⁶ cm/s"}, {"measurement": "IC50", "setting": "[35]", "result": 3, "unit": "nM"}]}]}
